In patent US12202790B2, “Sulfonamide derivatives having selective Nox inhibiting activity” (GLUCOX BIOTECH AB, priority 2018, dated 2025):

Legend:
hNox4 = hNox4 (Homo sapiens (Human), UniProt Q9NPH5); assay: Amplex Red assay of intact Nox4 expressing HEK293 cells; assay type: cell-based; settings: read-out: IC50 Nox4
Experimental: (§1) HEK293 overexpressing Nox4 (CJ Nox4) cells were purchased from Redoxis, Lund, Sweden. HEK 293 cells expressing Nox5, Nox3 (HEK TRex) and CHO cells expressing Nox1, were a kind gift from Vincent Jaque Center Medical Universitaire, Geneva, Switzerland. Nox2 expressed in isolated neutrophils were isolated from whole blood (human), as previously described (Anvari E, et al., Free Radic Res 2015; 49:1308-1318).
HEK293 cells (CJ Nox4) were cultured in RPMI 1640 with Glutamax supplemented with FBS (10%), penicillin (100 U/ml) and streptomycin […] at 37° C. in air with 5% CO2. Every third passage 200 µg/ml neomycin were supplied in growth medium as selective agent.
(§2) Reactive oxygen produced in whole cells or in membrane preparation of Nox1, Nox3, Nox4, Nox5 and xanthine oxidase and glucose oxidase were determined using Amplex Red as detection probe of formed H2O2. Amplex Red (10-acetyl-3,7-dihydroxyphenoxazine) in combination with HRP and co-factors reacts with H2O2 in a 1:1 stoichiometry to form a highly fluorescent resorufin excitated at 544 nm producing emission at 590 nm.
(§3) Adherent cells (CHO, HEK) were collected by trypsinization, centrifuged, washed with HBSS, counted, and resuspended in HBSS. Cells were seeded in 96-well black flat bottom plates at a density of 50,000-100,000 cells/well. All compounds were dissolved in DMSO and concentrations ranging from 0.003 to 200 μM were tested in Nox cellular assays with a final concentration of DMSO of 1%. Cells were incubated at 37° C. with the compounds for 30 minutes before measurement. Cells expressing Nox1 and Nox2 were activated with the PKC activator PMA (0.1 μM). Nox5 was activated with the Ca2+ ionophore ionomycin (1 μM) and further enforced with PMA. The CJ HEK 293 cells overexpressed Nox4 constitutively. In the HTS screen HEK 293 TRex was used and tetracycline ([…]) was added 18 h before measurement to induce Nox4 expression. Production of hydrogen peroxide by Nox in intact cells was measured using Amplex Red fluorescence as described by Jaquet V, et al., Br J Pharmacol 2011; 164:507-520. Assay reagents including HRP ([…]) and Amplex Red (50 μM) were added to initiate production of hydrogen peroxide. Fluorescence was read in a fluorescence plate reader at 37° C. every minute between 30-60 minutes.

Nox1 = Nox1 (Homo sapiens (Human), UniProt Q9Y5S8); assay: Amplex Red assay of Nox1 expressing CHO cells; assay type: cell-based; parameters: key to IC50 Nox1: The sign “—” stands for “inactive”
Nox1, sequence (Q9Y5S8 whole entry): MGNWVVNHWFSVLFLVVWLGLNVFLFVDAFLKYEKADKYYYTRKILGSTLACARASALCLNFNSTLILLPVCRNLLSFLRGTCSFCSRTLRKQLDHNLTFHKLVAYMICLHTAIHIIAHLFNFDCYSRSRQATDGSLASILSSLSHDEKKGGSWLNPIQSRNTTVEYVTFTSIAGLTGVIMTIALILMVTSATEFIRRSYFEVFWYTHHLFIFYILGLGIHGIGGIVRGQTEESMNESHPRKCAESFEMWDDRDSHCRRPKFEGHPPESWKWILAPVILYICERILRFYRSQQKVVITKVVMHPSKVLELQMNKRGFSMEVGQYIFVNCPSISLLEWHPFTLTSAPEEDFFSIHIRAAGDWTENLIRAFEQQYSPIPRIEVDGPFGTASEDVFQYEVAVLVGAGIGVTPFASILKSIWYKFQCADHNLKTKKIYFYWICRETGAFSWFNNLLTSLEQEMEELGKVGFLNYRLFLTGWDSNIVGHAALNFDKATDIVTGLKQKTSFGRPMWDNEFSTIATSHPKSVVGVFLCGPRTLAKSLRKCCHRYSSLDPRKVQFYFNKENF
Nox1, sequence (P13498 2-195 partner): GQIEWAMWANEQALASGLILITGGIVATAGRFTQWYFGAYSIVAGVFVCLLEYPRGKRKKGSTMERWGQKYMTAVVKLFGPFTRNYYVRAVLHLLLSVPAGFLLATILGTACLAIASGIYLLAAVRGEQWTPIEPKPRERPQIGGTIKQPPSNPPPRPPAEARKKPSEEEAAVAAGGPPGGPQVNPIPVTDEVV
Experimental: as §1
CHO cells expressing Nox1 were cultured in DMEM 12 medium (DMEM/F12) supplemented with FBS (10%), penicillin (100 U/ml) and streptomycin (100 μg/ml) at 37° C. in air with 5% CO2.
as §2, §3

xanthine oxidase = xanthine oxidase (Bos taurus (Bovine), UniProt P80457); assay: Amplex Red xanthine oxidase (XO) assay; assay type: biochemical; parameters: key: The sign “—” stands for “inactive”
xanthine oxidase, sequence (P80457 whole entry): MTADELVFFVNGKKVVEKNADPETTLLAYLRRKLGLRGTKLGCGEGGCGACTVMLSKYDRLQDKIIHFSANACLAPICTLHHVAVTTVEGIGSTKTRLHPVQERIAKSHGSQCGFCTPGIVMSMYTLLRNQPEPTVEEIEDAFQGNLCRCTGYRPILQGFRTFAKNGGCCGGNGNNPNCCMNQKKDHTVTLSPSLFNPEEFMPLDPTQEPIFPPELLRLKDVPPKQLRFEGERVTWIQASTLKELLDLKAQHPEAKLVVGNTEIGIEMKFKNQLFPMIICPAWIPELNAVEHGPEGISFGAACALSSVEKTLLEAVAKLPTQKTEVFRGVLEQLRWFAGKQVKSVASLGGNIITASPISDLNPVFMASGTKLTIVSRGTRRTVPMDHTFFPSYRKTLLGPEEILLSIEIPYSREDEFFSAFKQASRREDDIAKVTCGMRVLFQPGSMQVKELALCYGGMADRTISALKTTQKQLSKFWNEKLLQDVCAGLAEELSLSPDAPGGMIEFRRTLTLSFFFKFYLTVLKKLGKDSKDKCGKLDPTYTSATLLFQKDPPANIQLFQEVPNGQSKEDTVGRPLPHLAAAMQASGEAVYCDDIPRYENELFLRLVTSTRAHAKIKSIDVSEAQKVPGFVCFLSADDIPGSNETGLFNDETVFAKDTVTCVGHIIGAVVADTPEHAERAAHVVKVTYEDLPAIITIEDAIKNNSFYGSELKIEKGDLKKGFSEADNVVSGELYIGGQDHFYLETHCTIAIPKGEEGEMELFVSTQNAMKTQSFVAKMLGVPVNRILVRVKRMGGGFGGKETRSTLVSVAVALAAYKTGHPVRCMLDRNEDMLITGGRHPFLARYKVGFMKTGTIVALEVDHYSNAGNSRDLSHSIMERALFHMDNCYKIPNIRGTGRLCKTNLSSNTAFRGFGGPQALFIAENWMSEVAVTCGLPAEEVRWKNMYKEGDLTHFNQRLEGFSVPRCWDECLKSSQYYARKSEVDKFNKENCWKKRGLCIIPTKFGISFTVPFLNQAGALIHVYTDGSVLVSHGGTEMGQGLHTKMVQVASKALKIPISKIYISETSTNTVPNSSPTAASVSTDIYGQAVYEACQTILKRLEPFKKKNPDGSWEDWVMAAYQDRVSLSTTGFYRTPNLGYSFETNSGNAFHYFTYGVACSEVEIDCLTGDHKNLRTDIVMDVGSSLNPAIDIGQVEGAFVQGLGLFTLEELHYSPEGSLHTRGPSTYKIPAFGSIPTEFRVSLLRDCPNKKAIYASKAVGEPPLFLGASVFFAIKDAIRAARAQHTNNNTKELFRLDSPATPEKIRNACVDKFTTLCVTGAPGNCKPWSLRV
Experimental: as §2
The assay was designed for Amplex Red analysis of production of hydrogen peroxide. Test compounds were incubated with 5 mU/ml bovine derived xanthine oxidase for 15 min at room temperature followed by the addition of substrate and detection mix (final concentrations of 0.2 U/ml HRP, 5 μM hypoxanthine, and 50 μM Amplex Red). As described by Hirano K et al., Antioxid Redox Signal 2015 10; 23:358-374, production of hydrogen peroxide was followed by fluorescence detection during 30 min at 37° C. in a plate reader that use excitation at 544 nm producing emission at 590 nm.

Nox2 = Nox2 (Homo sapiens (Human), UniProt P04839); assay: Nox2 inhibition in human neutrophils, isoluminol-dependent chemiluminescence; assay type: cell-based; parameters: key to IC50 Nox2: The sign “—” stands for “inactive”; settings: PMA stimulated human neutrophils
Nox2, sequence (P04839 2-570): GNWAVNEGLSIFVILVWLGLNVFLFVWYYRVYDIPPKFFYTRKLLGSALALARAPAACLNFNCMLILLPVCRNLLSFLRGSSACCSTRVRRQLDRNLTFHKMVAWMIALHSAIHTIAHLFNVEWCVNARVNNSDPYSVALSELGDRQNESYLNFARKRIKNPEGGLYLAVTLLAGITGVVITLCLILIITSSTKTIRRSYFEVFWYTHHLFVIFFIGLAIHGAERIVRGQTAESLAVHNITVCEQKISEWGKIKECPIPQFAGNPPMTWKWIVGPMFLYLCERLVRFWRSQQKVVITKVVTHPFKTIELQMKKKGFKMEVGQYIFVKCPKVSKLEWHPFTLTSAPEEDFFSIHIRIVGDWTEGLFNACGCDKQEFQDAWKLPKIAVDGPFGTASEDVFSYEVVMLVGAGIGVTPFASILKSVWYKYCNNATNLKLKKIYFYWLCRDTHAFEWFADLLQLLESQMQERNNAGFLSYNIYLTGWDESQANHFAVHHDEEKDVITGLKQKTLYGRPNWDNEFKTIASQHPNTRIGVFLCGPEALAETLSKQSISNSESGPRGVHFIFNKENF
Nox2, sequence (P13498 2-195 partner): as the sequence (P13498 2-195 partner) above
Experimental: as §1
Compounds of the invention were tested for selectivity against Nox2 in isolated neutrophils from whole blood (human), as previously described (Anvari E, et al., vide supra). Levels of ROS from PMA stimulated primary human neutrophils were measured using isoluminol-dependent chemiluminescence. […] The dye is excited by ROS and the light emitted when the excited molecules return to the ground state, relative to the amount of released ROS, is measured. This reaction is catalyzed and amplified by peroxidases. […] Compounds of the invention and GKT136901 were diluted at 4× working concentration and titrated from 100 μM to 0.006 μM in 1:4 steps as final concentrations. DPI was diluted in isoluminol buffer at 4× working concentration titrated from 10 μM to 0.0006 μM as final concentrations. PMA was diluted in isoluminol buffer at 4× working concentration for a final concentration of 30 ng/ml. […] Luminescence was detected using FluoStar Optima (BMG, Labtech). The isoluminol buffer was prepared immediately prior to addition to test plate. The buffer contained HRP fraction with or without PMA (30 ng/ml). Stock solutions at 6 μg/ml (PMA in HBSS), 3 μg/ml (PMA in DMSO) and 24 mM (DPI) were used and further diluted at the day of analysis to 4× working concentrations in HBSS with or without DMSO.

DPPH redox assay = assay: DPPH redox assay; parameters: key: The sign “—” stands for “inactive”; settings: redox activity control
Experimental: DPPH, a well-known sensitive chemical of monitoring reactions involving radicals described by Xiong Q, et al., Biol Pharm Bull 1996; 19:1580-1585, was used as control to exclude any redox active compound. DPPH was incubated with decreasing concentrations (200-0.003 μM) of compounds of the invention or prior art compound GKT136901 (as a positive control). The plate was kept in the dark for 60 min, after which the absorbance of the solution was measured at 518 nm.

Nox5 = Nox5 (Homo sapiens (Human), UniProt Q96PH1); assay: Amplex Red assay of Nox5 expressing HEK cells; assay type: cell-based; parameters: key: The sign “—” stands for “inactive”
Nox5, sequence (Q96PH1 whole entry): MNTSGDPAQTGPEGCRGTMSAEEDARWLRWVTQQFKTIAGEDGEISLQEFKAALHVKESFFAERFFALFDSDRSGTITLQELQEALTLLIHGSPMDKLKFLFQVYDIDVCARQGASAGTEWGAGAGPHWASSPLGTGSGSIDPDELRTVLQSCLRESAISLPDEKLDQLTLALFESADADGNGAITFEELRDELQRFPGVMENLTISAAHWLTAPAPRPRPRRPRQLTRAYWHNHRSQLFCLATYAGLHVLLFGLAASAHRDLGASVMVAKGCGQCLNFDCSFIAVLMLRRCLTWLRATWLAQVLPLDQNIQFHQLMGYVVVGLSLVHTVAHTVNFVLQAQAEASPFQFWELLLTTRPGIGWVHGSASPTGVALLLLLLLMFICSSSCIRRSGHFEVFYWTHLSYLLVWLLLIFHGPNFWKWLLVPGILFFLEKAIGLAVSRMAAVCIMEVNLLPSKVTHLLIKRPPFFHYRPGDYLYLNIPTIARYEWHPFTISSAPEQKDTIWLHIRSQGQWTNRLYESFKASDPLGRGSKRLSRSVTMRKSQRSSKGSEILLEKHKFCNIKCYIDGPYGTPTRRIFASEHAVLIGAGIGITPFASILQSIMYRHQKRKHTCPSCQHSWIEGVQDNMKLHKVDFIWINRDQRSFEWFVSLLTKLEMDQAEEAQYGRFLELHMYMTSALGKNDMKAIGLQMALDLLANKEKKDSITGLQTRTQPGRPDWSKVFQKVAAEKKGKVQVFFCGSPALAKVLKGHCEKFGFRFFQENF
Text: as §1
HEK293T cells expressing tetracycline-inducible human (Nox3 or Nox4) and HEK293 cells stably expressing human Nox5 were generated as described previously (Serrander et al., 2007a,b). HEK cells were cultured in Dulbecco's modified Eagle medium (DMEM) with 4.5 g/l glucose, supplemented with FBS (10%), penicillin (100 U/ml) and streptomycin […] at 37° C. in air with 5% CO2.
as §2, §3

Human islet cells = assay: Effects on human islet cell viability; assay type: cell-based; settings: 48 h, inhibitor 2 μM; for human islet cell death with cytokines: IL-1β (20 ng/ml)+IFN-γ (20 ng/ml); for human islet cell death with high glucose+palmitate: palmitate (1.5 mM)+high glucose (20 mM)
Experimental: Human islet cells were incubated at control condition, with the cytokines IL-1β (20 ng/ml)+IFN-γ (20 ng/ml), or with palmitate (1.5 mM+2% BSA)+high glucose (20 mM) (PH) for 2 days with or without Nox1 inhibitor ML-171 (2 μM), Nox2 inhibitor Phos-I2 (2 μM) or Example 17 (1 μM). Islets were photographed in an inverted fluorescence microscope and the intensities of red (PI) and blue (Bisbenzimide) signals were quantified using Image J software. Results are indicated as mean±S.E.M for 7 human islet donors.

hNox4, sequence (Q9NPH5 whole entry): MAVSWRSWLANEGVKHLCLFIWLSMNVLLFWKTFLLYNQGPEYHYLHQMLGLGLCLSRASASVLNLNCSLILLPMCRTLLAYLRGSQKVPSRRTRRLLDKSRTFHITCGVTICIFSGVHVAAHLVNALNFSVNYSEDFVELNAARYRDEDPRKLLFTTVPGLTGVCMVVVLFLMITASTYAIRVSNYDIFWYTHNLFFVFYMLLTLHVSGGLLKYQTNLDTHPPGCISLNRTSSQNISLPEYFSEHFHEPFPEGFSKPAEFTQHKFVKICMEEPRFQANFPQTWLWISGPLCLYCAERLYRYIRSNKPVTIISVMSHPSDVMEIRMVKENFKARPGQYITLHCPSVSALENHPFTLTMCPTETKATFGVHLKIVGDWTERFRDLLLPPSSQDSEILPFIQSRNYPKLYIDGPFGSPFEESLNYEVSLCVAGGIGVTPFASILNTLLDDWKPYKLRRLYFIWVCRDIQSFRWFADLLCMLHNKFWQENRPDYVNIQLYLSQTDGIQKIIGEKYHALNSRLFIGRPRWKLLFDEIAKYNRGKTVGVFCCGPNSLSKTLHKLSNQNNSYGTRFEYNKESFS
hNox4, sequence (P13498 2-195 partner): as the sequence (P13498 2-195 partner) above

SMILES	IC50 (hNox4) [nM]	IC50 Nox1 (Nox1)	IC50 XO (xanthine oxidase)	IC50 Nox2 (Nox2)	IC50 DPPH (DPPH redox assay)	IC50 Nox5 (Nox5)	IC50 (Nox1) [nM]	IC50 (Nox2) [nM]	human islet cell death with cytokines (Human islet cells)	human islet cell death with high glucose+palmitate (Human islet cells)
Cc1ccccc1C(F)CNS(=O)(=O)c1c(Cl)cc(Br)cc1Cl (single isomer, unassigned) [Example 35 (isomer 1), 4-bromo-2,6-dichloro-N-[2-fluoro-2-(2-methylphenyl)ethyl]benzene-1-sulfonamide]	1700	—	—	—	—	—				
Cc1ccccc1C(F)CNS(=O)(=O)c1c(Cl)cc(Br)cc1Cl (single isomer, unassigned) [Example 35 (isomer 2), 4-bromo-2,6-dichloro-N-[2-fluoro-2-(2-methylphenyl)ethyl]benzene-1-sulfonamide]	4900	—	—	—	—	—				
Cc1cc(C)c(S(=O)(=O)NCCc2ccccc2F)c(C)c1 [Example 2, N-[2-(2-fluorophenyl)ethyl]-2,4,6-trimethylbenzene-1-sulfonamide]	2200	—	—	—	—	—				
Cc1c(C)c(S(=O)(=O)NCCc2ccccc2Cl)c(C)c2c1OC(C)(C)C2 [Example 9, N-[2-(2-chlorophenyl)ethyl]-2,2,4,6,7-pentamethyl-2,3-dihydro-1-benzofuran-5-sulfonamide]	1600	—	—	—	—	—				
O=S(=O)(NCCc1ccccc1F)c1c(Cl)cc(C2CC2)cc1Cl [Example 25, 2,6-dichloro-4-cyclopropyl-N-[2-(2-fluorophenyl)ethyl]benzene-1-sulfonamide]	1100	—	—		—	—				
O=S(=O)(NCCc1ccccc1Cl)c1c(Cl)cc(C(F)(F)F)cc1Cl [Example 27, 2,6-dichloro-N-[2-(2-chlorophenyl)ethyl]-4-(trifluoromethyl)benzene-1-sulfonamide]	1600	—	—		—	—				
Cc1c2c(=O)n(-c3ccccc3Cl)[nH]c2cc(=O)n1Cc1ccccn1 [GKT136901, 2-(2-Chlorophenyl)-4-methyl-5-(pyridin-2-ylmethyl)-1H-pyrazolo[4,3-c]pyridine-3,6-dione, reference compound]	1600				active		500	9000		
CC(=O)c1ccc2c(c1)Nc1ccccc1S2 [ML171]									failed to reduce human islet cell death	failed to reduce human islet cell death
O=[N+]([O-])c1cccc(C2Nc3ccc([N+](=O)[O-])cc3C3C=CCC32)c1 (stereo not shown) [Phox-I2]									failed to protect human islets against cytokines	partially protected against high glucose+palmitate

Now from value to molecule, other results behind:

IC50 (hNox4) [nM]	IC50 Nox1 (Nox1)	IC50 XO (xanthine oxidase)	IC50 Nox2 (Nox2)	IC50 DPPH (DPPH redox assay)	IC50 Nox5 (Nox5)	IC50 (Nox1) [nM]	IC50 (Nox2) [nM]	SMILES	human islet cell death with cytokines (Human islet cells)	human islet cell death with high glucose+palmitate (Human islet cells)
270	—	—	—	—	—			Cc1cc(C)c(S(=O)(=O)NCCc2ccccc2Cl)c(C)c1 [Example 6, N-[2-(2-chlorophenyl)ethyl]-2,4,6-trimethylbenzene-1-sulfonamide]		
270	—	—	—		—			Cc1cc(C)c(S(=O)(=O)NCCc2ccccc2Br)c(C)c1 [Example 7, N-[2-(2-bromophenyl)ethyl]-2,4,6-trimethylbenzene-1-sulfonamide]		
90	—	—	—	—	—			Cc1cc(C)c(S(=O)(=O)NCCc2ccccc2C)c(C)c1 [Example 14, 2,4,6-trimethyl-N-[2-(2-methylphenyl)ethyl]benzene-1-sulfonamide]		
900	—	—		—	—			O=S(=O)(NCCc1ccccc1Cl)c1c(Cl)cc(Br)cc1Cl [Example 20, 4-bromo-2,6-dichloro-N-[2-(2-chlorophenyl)ethyl]benzene-1-sulfonamide]		
